Tests used:
[1] = test system: C. albicans strain SC5314 biofilm; experiment: XTT metabolic assay of C. albicans biofilm; format: cell-based, Candida albicans; details: for Absorbance at 492 nm, Mean (XTT): C. albicans biofilm, test compound 100 μM, 24 hr, MeOH control 0.647, untreated 0.851
Procedure: C. albicans strain SC5314 was sub-cultured from 15% (v/v) glycerol stocks at −80° C. onto Yeast Peptone Dextrose (YPD) medium [1% (w/v) yeast extract, 2% (w/v) peptone and 2% (w/v) dextrose] and incubated at 30° C. overnight.
The test compounds in desiccated form were re-suspended in Methanol to create a 10 mM stock. […]
The ability of some of the compounds detailed in example 1 to disrupt Candida albicans was tested using Confocal Scanning Laser Microscopy and an XTT Metabolic Assay. The XTT assay is a commonly used quantitative method assessing Candida biofilm mass and growth often in response to novel drug therapies.
C. albicans biofilm formation was carried out in 96 well plates by a method of the prior art. Briefly, C. albicans was inoculated into Yeast Nitrogen Base [10% (w/v)] and glucose/maltose [10% (w/v)] and incubated overnight at 30° C. Seeding densities for all subsequent experiments (N=3) were OD600=0.05. Cells were grown in Yeast Nitrogen Base supplemented with 1 M Phosphate buffer and acetyl-D-glucosamine (YNB-NP) along with appropriate volumes of test compound to provide the desired concentration. Cells were cultured in 96 well plates for 1 hr at 37° C. to facilitate yeast attachment. After this incubation, the supernatants were aspirated, the wells washed twice with YNB-NP media, and fresh media with the same concentration of test compound added to the appropriate wells. The plate was incubated for 24 hr at 37° C. The next day, the cultures were aspirated and the wells washed once with YNB-NP media.
C. albicans biofilm quantification was carried out in 96 well plates using a semi-quantitative Tetrazolium salt, 2,3-bis-(2-methoxy-4-nitro-5-sulfophenyl)-2H tetrazolium-5-carboxanilide inner salt (XTT) reduction assay (Hawser, Tunney et al, Antimicrob Agents Chemother. 2004 May; 48(5):1879-81). XTT (0.01 g) was dissolved in sterile water (20 ml) and filter sterilized. 10 μl of Menadione dissolved in Acetone was added to the XTT solution, just before use. The XTT-Menadione Solution (100 μl) was added to each well. The plate was incubated in the dark at 37° C. for up to 2 hr to allow for colour development. The OD492 nm was recorded for each well. Experiments were repeated at least three times, with at least eight technical replicates.
Experiments were first carried out using the test compound at concentration of 100 μM.

[2] = test system: IB3 lung epithelial cells; experiment: LDH release cytotoxicity, IB3-1 cells; format: cell-based; details: 100 μM, 16 hr, percentage of 0.1% Triton (100% cytotoxicity), MeOH 3.844
Procedure: (§1) Lactate dehydrogenase (LDH) release from IB3 lung epithelial cells was assayed as a measure of cytotoxicity using an LDH colorimetric kit (Roche) according to manufacturers' instructions. Briefly, IB3-1 cells were seeded onto 96 well plates and treated with methanol (control) and test compounds (100 μM). Following 16 hr incubation at 37° C. and 5% CO2, supernatants were removed and added to catalyst reaction mixture in a fresh plate and further incubated at 37° C. and 5% CO2 for 30 mins to allow for colour development. After this period, the plate was analysed on an ELISA plate reader at OD490 nm. Cytotoxicity was expressed as a percentage of cells treated with 0.1% (v/v) Triton (100% cytotoxicity).

[3] = test system: P. aeruginosa PAO1 pqsA-pqsA-lacZ strain; experiment: Phenazine extraction (phenazine production); format: cell-based; details: for Phenazine, Mean: PAO1 pqsA-pqsA-lacZ strain, test compounds 10 μM, 24 hr, methanol control 0.080; for Normalised Phenazine, Mean: normalized to the methanol control (=1), n>=2
Procedure: (§2) P. aeruginosa strains, PAO1 and pqsA mutant, containing the chromosomally inserted pqsA-lacZ promoter fusion on plasmid pUC18-mini-Tn7, were sub-cultured from glycerol stocks onto LB agar plates, supplemented with Carbenicillin (200 μg/ml) and X-gal (40 μg/ml), and incubated at 37° C. overnight. Single colonies were inoculated into LB broth (20 ml), supplemented with Carbenicillin (200 μg/ml), and incubated at 37° C., shaking at 180 rpm overnight. For subsequent experiments, the OD600 nm was recorded and a starting OD600 nm of 0.02 was inoculated into fresh LB broth, supplemented with Carbenicillin (200 μg/ml) and incubated at 37° C., shaking at 180 rpm.
(§3) P. aeruginosa strains were cultured as described above for 24 hr, with the addition of test compounds (10 μM). Cultures were centrifuged at 4000 rpm for 10 minutes and the cell free supernatant (5 ml) removed. Chloroform (3 ml) was added, and mixed by vortex. After centrifugation at 4000 rpm for 5 mins, the lower aqueous phase was transferred to 0.2 M HCl (2 ml). Samples were mixed by vortex and centrifuged at 4000 rpm for 5 mins to separate the phases. An aliquot of the top phase (1 ml) was removed and spectrophotmetrically analysed at OD570 nm. Phenazine production was calculated using the following formula: OD570 nm×2×17.072 and the units expressed in μg/ml.
(§4) The phenazine production levels and Miller units in the PAO1 pqsA-pqsA-lacZ strain are detailed in table 5.
(§5) The virulence of compounds B2, C13 and C15 towards P. aeruginosa was assessed using an analogous method.

[4] = test system: pqsA-lacZ promoter fusion; experiment: Promoter fusion based expression analysis (pqsA-lacZ, Miller units); format: cell-based, P. aeruginosa; details: for Miller Units, Mean: PAO1 pqsA-pqsA-lacZ strain, 100 μM, overnight, methanol control 12287; for Normalised Miller Units, Mean: normalized to the methanol control (=1), n>=2
Procedure: as §2
Promoter fusion analyses were performed in a 96-well format. Briefly, overnight cultures of wild-type PAO1 pqsA-lacZ (pLP0996) and mutant strain PAO1 pqsA^− pqsA-LacZ were diluted to OD600 nm=0.02 in LB. Test compounds at 100 μM final concentration were added, mixed, aliquoted into 96 well plates and incubated overnight at 37° C. with shaking. The next day, OD600 nm values were recorded in a plate reader. Aliquots of cells (0.02 ml) were permeabilised [100 mM dibasic sodium phosphate (Na2HPO4), 20 mM KCl, 2 mM MgSO4, 0.8 mg/mL CTAB (hexadecyltrimethylammonium bromide), 0.4 mg/mL sodium deoxycholate, 5.4 μL/mL beta-mercaptoethanol] and added to substrate solution [60 mM Na2HPO4, 40 mM NaH2PO4, 1 mg/mL o-nitrophenyl-β-D-Galactoside (ONPG), 2.7 μL/mL β-mercaptoethanol]. The kinetics of colour development was monitored and the reactions were stopped using 1M NaCO3. OD420 nm were recorded as above. Miller units were calculated using the following equation; 1000×[OD420 nm/(OD600 nm)×0.02 ml×reaction time (mins)].
as §4, §5

mammalian cells = experiment: Cytotoxicity towards mammalian cells (summary statement); format: cell-based
Procedure: as §1, with “cytotoxicity). The results are detailed in table 3:” for “cytotoxicity).”
The above experiments were repeated, testing some compounds against further cell lines (A549, DU145 and HeLa).

Pseudomonus aeruginosa = experiment: Virulence of Pseudomonas aeruginosa (summary statement); format: cell-based; details: unlike HHQ and PQS
Procedure: The virulence of compounds B1, B2, C2, C3, C4, C5, C6, C8 and C11 towards P. aeruginosa was assessed using the following method:
as §3, with “μg/ml. […]” for “μg/ml.”

[5] = test system: A. fumigatus Af293 biofilm; experiment: A. fumigatus biofilm assay (crystal violet); format: cell-based, Aspergillus fumigatus; details: for Relative absorbance at 595 nm compared to methanol control, Mean: A. fumigatus Af293 biofilm, 100 μM, 24 hrs, crystal violet; for effectiveness against fungal biofilms formed by Aspergillus fumigatus (in words): summary statement
Procedure: A. fumigatus Af293 was routinely grown on Sabouraud dextrose agar (SDA) in 100 ml cell culture flasks at 37° C. for 3-4 days until a lawn of fungal growth was observed.
(§6) A. fumigatus Af293 was grown on SDA in 100 ml cell culture flasks at 37° C. for 3-4 days. Conidia were harvested by flooding the surface of the agar plates with 5 ml PBS (Oxoid) containing 0.025% (v/v) Tween 20 and gently moving the liquid over the surface of the fungal lawn. The conidial suspension was transferred into a 25 ml sterile container and conidia were counted using a Neubauer haemocytometer and light microscope. Conidia were adjusted to the required concentration in RPMI 1640 (Sigma) buffered to pH 7.0 with 0.165 M MOPS immediately prior to biofilm formation analysis.
(§7) To assess biofilm formation, counted A. fumigatus spores (1×10^5) in MOPS buffered RPMI 1640 were inoculated into 24- and 96-well plates and grown overnight in the presence of 100 μM HHQ, PQS and the test compounds. After 24 hrs, the media was removed and the biofilm washed twice with distilled water after which 0.1% crystal violet (CV) was added to each well and allowed to stand for 1 hr at room temperature. The crystal violet was removed and all wells washed in a water bath by inversion. Ethanol was added to each well to solubilise biofilms after which samples were read on a spectrophotometer at Abs595 nm.

[6] = test system: A. fumigatus CFBRC1 biofilm; experiment: A. fumigatus biofilm assay, clinical source CFBRC1; format: cell-based, Aspergillus fumigatus; details: biofilm from clinical source CFBRC1
Procedure: as §6, §7
(§8) The above experiments were carried out using biofilms grown from laboratory sources of A. fumigatus. The experiments were repeated to test some compounds against biofilms grown from three different clinical sources of A. fumigatus (CFBRC1, CFBRC2 and CFBRC3. The results are shown in table 8: […]

[7] = test system: A. fumigatus CFBRC2 biofilm; experiment: A. fumigatus biofilm assay, clinical source CFBRC2; format: cell-based, Aspergillus fumigatus; details: biofilm from clinical source CFBRC2
Procedure: as §6, §7, §8

[8] = test system: A. fumigatus CFBRC3 biofilm; experiment: A. fumigatus biofilm assay, clinical source CFBRC3; format: cell-based, Aspergillus fumigatus; details: biofilm from clinical source CFBRC3
Procedure: as §6, §7, §8

CCCCCCCn1c(=O)cc(O)c2ccccc21 [Compound C6]
Absorbance at 492 nm, Mean (XTT) [1]: 0.336 | effectiveness against fungal biofilms formed by Candida albicans (in words) ([1]; summary statement): effective | % Cytotoxicity, Mean (LDH release) [2]: 19.70% | Phenazine, Mean [3]: 0.011 µg/mL | Miller Units, Mean [4]: 16678 Miller Units | cytotoxicity towards mammalian cells (in words) (mammalian cells): reduced cytotoxicity | effect on virulence of Pseudomonus aeruginosa (in words) (Pseudomonus aeruginosa): do not increase the virulence

CCCCCCCCCc1cc(=O)c2cc(OC)ccc2[nH]1 [Compound C8]
Absorbance at 492 nm, Mean (XTT) [1]: 0.457 | Phenazine, Mean [3]: 0.205 µg/mL | Miller Units, Mean [4]: 11753 Miller Units | Relative absorbance at 595 nm compared to methanol control, Mean [5]: 0.47 | effectiveness against fungal biofilms formed by Aspergillus fumigatus (in words) [5]: effective | cytotoxicity towards mammalian cells (in words) (mammalian cells): reduced cytotoxicity | effect on virulence of Pseudomonus aeruginosa (in words) (Pseudomonus aeruginosa): do not increase the virulence

CCCCCCCc1cc(=O)c2ccc(OC)cc2[nH]1 [Compound C9]
Relative absorbance at 595 nm compared to methanol control, Mean [5]: 0.18 | effectiveness against fungal biofilms formed by Aspergillus fumigatus (in words) [5]: effective | Relative absorbance compared to MeOH (=1), Mean [6]: 0.593 | Relative absorbance compared to MeOH (=1), Mean [7]: 0.484 | Relative absorbance compared to MeOH (=1), Mean [8]: 0.439 | cytotoxicity towards mammalian cells (in words) (mammalian cells): reduced cytotoxicity | effect on virulence of Pseudomonus aeruginosa (in words) (Pseudomonus aeruginosa): do not increase the virulence

CCCCCCCc1cc(=O)c2cc(OC)ccc2[nH]1 [Compound C11]
Absorbance at 492 nm, Mean (XTT) [1]: 0.242 | Phenazine, Mean [3]: 0.432 µg/mL | Miller Units, Mean [4]: 12254 Miller Units | cytotoxicity towards mammalian cells (in words) (mammalian cells): reduced cytotoxicity | effect on virulence of Pseudomonus aeruginosa (in words) (Pseudomonus aeruginosa): do not increase the virulence

CCCCCCCc1cc(=O)c2cc(C(=O)OCC)ccc2[nH]1 [Compound C13]
Normalised Phenazine, Mean [3]: 0.747 ratio to methanol control | Normalised Miller Units, Mean [4]: 0.3715 | Relative absorbance at 595 nm compared to methanol control, Mean [5]: 0.38 | effectiveness against fungal biofilms formed by Aspergillus fumigatus (in words) [5]: effective | Relative absorbance compared to MeOH (=1), Mean [6]: 0.507 | Relative absorbance compared to MeOH (=1), Mean [7]: 0.620 | Relative absorbance compared to MeOH (=1), Mean [8]: 0.609 | cytotoxicity towards mammalian cells (in words) (mammalian cells): reduced cytotoxicity | effect on virulence of Pseudomonus aeruginosa (in words) (Pseudomonus aeruginosa): do not increase the virulence

CCCCCCCc1cc(=O)c2cc(F)ccc2[nH]1 [Compound C14]
Relative absorbance at 595 nm compared to methanol control, Mean [5]: 0.42 | Relative absorbance compared to MeOH (=1), Mean [6]: 0.550 | Relative absorbance compared to MeOH (=1), Mean [7]: 0.823 | Relative absorbance compared to MeOH (=1), Mean [8]: 0.501 | cytotoxicity towards mammalian cells (in words) (mammalian cells): reduced cytotoxicity

CCCCCCCc1cc(=O)c2c(C)cc(C)cc2[nH]1 [Compound C15]
Normalised Phenazine, Mean [3]: 0.4984 ratio to methanol control | Normalised Miller Units, Mean [4]: 0.4671 | Relative absorbance at 595 nm compared to methanol control, Mean [5]: 0.25 | effectiveness against fungal biofilms formed by Aspergillus fumigatus (in words) [5]: effective | Relative absorbance compared to MeOH (=1), Mean [6]: 0.518 | Relative absorbance compared to MeOH (=1), Mean [7]: 0.443 | Relative absorbance compared to MeOH (=1), Mean [8]: 0.413 | cytotoxicity towards mammalian cells (in words) (mammalian cells): reduced cytotoxicity | effect on virulence of Pseudomonus aeruginosa (in words) (Pseudomonus aeruginosa): do not increase the virulence

Source: patent publication US10882826B2, “Quinolinone or quinazolinone comprising antibiofilm compositions, compounds and methods and uses relating thereto” (University College Cork—National University of Ireland, priority 2015, dated 2021)
